Measurements taken from a compilation of properties of binary mixtures (doi:10.1016/j.molliq.2021.116359).

Test: xn = mol fraction of the nth substance listed
Conditions: 101.3 kPa, x1 = 0.2

CCCC[N+](CCCC)(CCCC)CCCC.O=S(=O)([O-])O + CCCCCCCCCO
Conditions	electrical conductivity [S/m]	speed of sound [m/s]	viscosity [mPa·s]
298.15 K	0.0037	1411.5	137.2
303.15 K	0.005	1395	107.9
318.15 K	0.0102	1346.7	51.9
323.15 K	0.0123	1331.1	41.9
328.15 K	0.0146	1315.7	33.79
333.15 K	0.018	1300.3	27.74
